From patent US12729458B2, “Discovery and evolution of biologically active metabolites” (The Regents of the University of Colorado, a Body Corporate, priority 2020, dated 2026)

Legend:
PTP1B [1] = target: T1, PTP1B (Homo sapiens, UniProt P18031); type: cell-based, H. sapiens; conditions: terpenoid produced in the cell by its metabolic pathway
T1 construct: In this study, we used a well-studied truncation variant (i.e., PTP1B1-321); His-tag; made in house; host or cells: E. coli BL21 (DE3), pET21b
T1 sequence (P18031 1-321): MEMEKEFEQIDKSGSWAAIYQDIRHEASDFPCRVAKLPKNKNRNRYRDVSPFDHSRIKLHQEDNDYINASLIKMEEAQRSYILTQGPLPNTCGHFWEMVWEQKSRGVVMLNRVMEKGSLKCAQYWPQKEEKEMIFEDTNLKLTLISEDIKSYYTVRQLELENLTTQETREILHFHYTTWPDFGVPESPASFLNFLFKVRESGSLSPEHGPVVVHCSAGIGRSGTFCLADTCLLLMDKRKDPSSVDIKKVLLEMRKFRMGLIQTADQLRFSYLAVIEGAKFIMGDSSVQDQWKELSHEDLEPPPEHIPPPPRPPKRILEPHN

PTP1B [2] = target: T2, PTP1B (Homo sapiens, UniProt P18031); test: Ligand efficiency (TABLE 15); parameters: species or system H. sapiens; conditions: for IC50: PTP1B, the patent's own terpenoid inhibitors
T2 sequence (P18031 1-321 limits assumed): T1 sequence (P18031 1-321)

Structure (SMILES)	survival of E. coli with PTP1B B2H system on spectinomycin (PTP1B [1])	ligand efficiency (PTP1B [2]; (−2.303RT)/HAC * log(IC50)) [kcal/mol-atom]	IC50 (PTP1B [2]) [µM]	ligand efficiency (PTP1B [2]; TABLE 15)
C=C(C)[C@@H]1CC[C@@H](C)[C@@H]2CCC(C)=C[C@@H]21 [amorphadiene]	permitted survival at high concentrations of antibiotic	0.39	50	high
CC(C)=CCC=C(C)C1CC=C(C)CC1 (stereo not drawn) [α-bisabolene]	permitted survival at high concentrations of antibiotic	0.44	13	high
